Drawing on ChEMBL document CHEMBL4422646, “Synthesis and biological evaluation of 3-amino-, 3-alkoxy- and 3-aryloxy-6-(hetero)arylpyridazines as potent antitumor agents” (Bioorg Med Chem Lett, 2019), this text covers IC50 and Activity for 24 molecules.

A value given as a limit tells only on which side of the number the result lay.

In series [1] the test system is MDA-MB-231. Description: Antiproliferative activity against human MDA-MB-231 cells after 48 hrs by Hoechst 33342 staining-based assay. In kind it is functional, cell-based. Conditions: MDA-MB-231, 48 h.
In series [2] the test system is Caco-2. Description: Antiproliferative activity against human Caco2 cells after 48 hrs by Hoechst 33342 staining-based assay. Format: functional, cell-based. The note with it: Caco-2, 48 h.
In series [3] the test system is Huh-7. Description: Antiproliferative activity against human HuH7 cells after 48 hrs by Hoechst 33342 staining-based assay. Conditions: Huh-7, 48 h. In kind it is functional, cell-based.
Series [4] concerns HaCaT. Description: Antiproliferative activity against human HaCaT cells after 48 hrs by Hoechst 33342 staining-based assay. In kind it is cell-based.
Series [5] concerns NCI-H727. Description: Antiproliferative activity against human NCI-H727 cells after 48 hrs by Hoechst 33342 staining-based assay. In kind it is functional, cell-based. Conditions: NCI-H727, 48 h.
Series [6] concerns HCT-116. Description: Antiproliferative activity against human HCT116 cells after 48 hrs by Hoechst 33342 staining-based assay. In kind it is functional, cell-based. The note with it: HCT-116, 48 h.
Series [7] relates to Fibroblast. Description: Antiproliferative activity against human fibroblast cells after 48 hrs by Hoechst 33342 staining-based assay. Format: cell-based.
The subject of series [8] is Huh-7. Description: Antiproliferative activity against human HuH7 cells at 0.1 to 25 uM after 48 hrs by Hoechst 33342 staining-based assay relative to control. In kind it is functional.
Series [9] deals with PC-3. Description: Antiproliferative activity against human PC3 cells after 48 hrs by Hoechst 33342 staining-based assay. Format: functional, cell-based. Conditions: PC-3, 48 h.
Series [10] concerns MDA-MB-231. Description: Antiproliferative activity against human MDA-MB-231 cells at 0.1 to 25 uM after 48 hrs by Hoechst 33342 staining-based assay relative to control. In kind it is functional.
In series [11] the test system is HCT-116. Description: Antiproliferative activity against human HCT116 cells at 0.1 to 25 uM after 48 hrs by Hoechst 33342 staining-based assay relative to control. In kind it is functional.
Series [12] concerns PC-3. Description: Antiproliferative activity against human PC3 cells at 0.1 to 25 uM after 48 hrs by Hoechst 33342 staining-based assay relative to control. Format: functional.
Series [13] relates to HaCaT. Description: Antiproliferative activity against human HaCaT cells at 0.1 to 25 uM after 48 hrs by Hoechst 33342 staining-based assay relative to control. In kind it is cell-based.

On to `COC(=O)c1cccc(-c2ccc(-n3cccc3)nn2)c1`, for which the IC50 – broadly, the point on the concentration scale where inhibition reaches its midpoint – in [1] is greater than 25 µM; in series [2], 50 µM; in [3], 30 µM; in series [4] it was greater than 25 µM; in [5], greater than 25 µM; in series [6] it was greater than 25 µM. The IC50 in series [7] and in series [9] was greater than 25 µM each time. The same molecule came in with an Activity in [8] of 75%.

For `Cc1ccc(-c2ccc(N3CCN(c4ccccc4)CC3)nn2)cc1`, the IC50 in [1] is greater than 25 µM; in [2], 50 µM; in [3], 30 µM; in series [4] it was greater than 25 µM; in series [5], greater than 25 µM; in [6], greater than 25 µM. In addition, the IC50 in [7] and in series [9] was greater than 25 µM throughout. Also, the Activity in series [8] came to 75%.

For the molecule `CC(=O)c1ccc(-c2ccc(N3CCCC3)nn2)cc1`, the IC50 was greater than 25 µM in series [1]; 50 µM in [2]; 30 µM in series [3]; greater than 25 µM in series [4]; greater than 25 µM in [5]; greater than 25 µM in [6]. For the same molecule, the IC50 in series [7] and in series [9] was greater than 25 µM each time. Moreover, the Activity in series [8] came to 75%.

Take `COc1ccc(Nc2ccc(-c3ccccc3)nn2)cc1`: the concentration for half-maximal inhibition (IC50) in [1] is greater than 25 µM; in series [2] it was 50 µM; in [3], 30 µM; in series [4] it was greater than 25 µM; in [5] it was greater than 25 µM; in series [6], greater than 25 µM. Also, the IC50 in series [7] and in series [9] was greater than 25 µM each time. The Activity in series [8] was 75%.

Regarding `COc1ccccc1-c1ccc(N2CCN(C)CC2)nn1`, the IC50 was greater than 25 µM in [1]; 50 µM in [2]; 30 µM in series [3]; greater than 25 µM in [4]; greater than 25 µM in series [5]; greater than 25 µM in series [6]. Moreover, the IC50 in series [7] and in series [9] was greater than 25 µM in each case. For the same molecule, in series [8], the Activity is listed as 75%.

With `CN1CCN(c2ccc(-c3cccc(C(F)(F)F)c3)nn2)CC1`, the IC50 is greater than 25 µM in series [1]; 50 µM in series [2]; 30 µM in [3]; greater than 25 µM in series [4]; greater than 25 µM in [5]; greater than 25 µM in series [6]. Further, the IC50 in [7] and in series [9] was greater than 25 µM each time. The Activity in series [8] worked out at 75%.

In the case of `CCN(CC)c1ccc(-c2cccc(C(F)(F)F)c2)nn1`, the IC50 in [1], in [2], in [3], in series [4], in series [5] and in series [6] was greater than 25 µM in each case. Also, the IC50 in series [7] and in [9] was greater than 25 µM each time.

For the molecule `c1ccc(-c2ccc(N3CCOCC3)nn2)cc1`, the IC50 in [1], in series [2], in [3], in series [4], in [5] and in series [6] was greater than 25 µM throughout. Moreover, the IC50 in series [7] and in [9] was greater than 25 µM throughout.

In the case of `CCOC(=O)c1ccccc1-c1ccc(N2CCOCC2)nn1`, the IC50 in series [1], in series [2], in series [3], in [4], in series [5] and in series [6] was greater than 25 µM each time. Also, the IC50 in series [7] and in series [9] was greater than 25 µM each time.

Consider `FC(F)(F)c1cccc(-c2ccc(N3CCOCC3)nn2)c1`, for which the IC50 in [1], in series [2], in series [3], in series [4], in series [5] and in [6] was greater than 25 µM in each case. For the same molecule, the IC50 in series [7] and in series [9] was greater than 25 µM in each case.

As for `COc1ccc(-c2ccc(Oc3ccccc3)nn2)cc1`, the IC50 in series [1], in series [2], in series [3], in series [4], in series [5] and in series [6] was greater than 25 µM in each case. Besides, the IC50 in series [7] and in series [9] was greater than 25 µM in each case.

As to `c1cc(-c2ccc(N3CCOCC3)nn2)cs1`, the IC50 in series [1], in [2], in series [3], in [4], in series [5] and in series [6] was greater than 25 µM each time. Moreover, the IC50 in [7] and in [9] was greater than 25 µM throughout.

As to `CCOC(=O)c1ccc(-c2ccc(N3CCOCC3)nn2)cc1`, the IC50 in [1], in series [2], in series [3], in series [4], in series [5] and in series [6] was greater than 25 µM in each case. Besides, the IC50 in series [7] and in series [9] was greater than 25 µM in each case.

As for `CCN(CC)c1ccc(-c2ccc(C#N)cc2)nn1`, the IC50 in series [1], in series [2], in [3], in series [4], in series [5] and in series [6] was greater than 25 µM in each case. For the same molecule, the IC50 in [7] and in series [9] was greater than 25 µM each time.

Turning to `COc1ccc(-c2ccc(N3CCOCC3)nn2)cc1`, the IC50 in series [1], in series [2], in series [3], in series [4], in series [5] and in series [6] was greater than 25 µM each time. Besides, the IC50 in series [7] and in [9] was greater than 25 µM each time.

On to `Oc1cccc(-c2nc(N3CCOCC3)c3oc4ncccc4c3n2)c1` [PI-103], for which the IC50 in series [1] is 8 µM; in series [2], 0.8 µM; in series [3], 6 µM; in series [4] it was 2 µM; in series [5] it was greater than 25 µM; in series [6], 3 µM. Moreover, the concentration for half-maximal inhibition (IC50) in series [7] is greater than 25 µM; in series [9] it was 1.2 µM. Also, the Activity in series [10] came out at 40%; in [11] it was 80%; in series [12] it was 60%; in [8] it was 40%; in series [13], 70%.

As for `c1ccc(Oc2ccc(-c3ccsc3)nn2)cc1`, the IC50 in series [1], in series [2], in [3], in [4], in [5] and in [6] was greater than 25 µM in each case. The IC50 in series [7] and in series [9] was greater than 25 µM throughout.

As for `CCN(CC)c1ccc(-c2cccc(C#N)c2)nn1`, the IC50 in [1], in [2], in series [3], in series [4], in series [5] and in [6] was greater than 25 µM each time. Moreover, the IC50 in series [7] and in [9] was greater than 25 µM throughout.

Consider `FC(F)(F)c1cccc(-c2ccc(N3CCCC3)nn2)c1`, for which the IC50 in [1] is greater than 25 µM; in series [2] it was 50 µM; in series [3], 30 µM; in series [4], greater than 25 µM; in series [5], greater than 25 µM; in series [6], greater than 25 µM. Besides, the IC50 in series [7] and in series [9] was greater than 25 µM each time. In [8], this molecule registered an Activity of 75%.

For the molecule `Fc1ccc(-c2ccc(N3CCOCC3)nn2)cc1`, the IC50 in series [1], in series [2], in series [3], in [4], in [5] and in series [6] was greater than 25 µM throughout. For the same molecule, the IC50 in series [7] and in series [9] was greater than 25 µM in each case.

As to `CCOC(=O)c1ccc(-c2ccc(OCC)nn2)cc1`, the IC50 in series [1], in [2], in series [3], in series [4], in [5] and in [6] was greater than 25 µM in each case. The half-maximal inhibitory concentration (IC50) in series [7] and in series [9] was greater than 25 µM throughout.

`CC(=O)c1cccc(-c2ccc(OCc3ccccc3)nn2)c1`: the IC50 in series [1], in series [2], in series [3], in series [4], in series [5] and in series [6] was greater than 25 µM in each case. Moreover, the IC50 in series [7] and in series [9] was greater than 25 µM in each case.

Consider `c1cncc(-c2ccc(N3CCOCC3)nn2)c1`, for which the IC50 in series [1], in series [2], in [3], in [4], in [5] and in series [6] was greater than 25 µM each time. The IC50 in [7] and in series [9] was greater than 25 µM throughout.

In the case of `CCOC(=O)c1cccc(-c2ccc(N3CCOCC3)nn2)c1`, the concentration for half-maximal inhibition (IC50) in series [1], in series [2], in series [3], in series [4], in series [5] and in series [6] was greater than 25 µM in each case. Also, the IC50 in [7] and in series [9] was greater than 25 µM in each case.
